These results are taken from US20260102359A1, “COMBINATION TREATMENT OF DERMAL AND TRANSDERMAL FIBROTIC DISEASES, DISORDERS AND ASSOCIATED PAIN AND INFLAMMATION” (ERESINA, LLC, priority 2022, published 2026).

The test system of this data set is hDMFa myofibroblast cells.

Where a name gives a salt, the structure may show the parent alone.

In the case of `Cc1coc2c1C(=O)C(=O)c1c-2ccc2c1CCCC2(C)C` [Cmpd 913, Tanshinone IIA], the “Compound Myofibroblast Cytotoxicity Activity” value was “+++++”.
The value for `Cc1c(S(=O)(=O)[O-])oc2c1C(=O)C(=O)c1c-2ccc2c1CCCC2(C)C.[Na+]` [Cmpd 914, Tanshinone IIA---sulfonic sodium] was “++”; that for `Cn1nnc(-c2ccc(-c3ccc(N4C[C@H](CO)OC4=O)cc3F)cn2)n1` [Cmpd 920, Tedizolid HCl] was “++++”.
Take `CO[C@H]1C[C@@H]2CC[C@@H](C)[C@@](O)(O2)C(=O)C(=O)N2CCCC[C@H]2C(=O)O[C@H]([C@H](C)C[C@@H]2CC[C@@H](OC(=O)C(C)(CO)CO)[C@H](OC)C2)CC(=O)[C@H](C)/C=C(\C)[C@@H](O)[C@@H](OC)C(=O)[C@H](C)C[C@H](C)/C=C/C=C/C=C/1C` [Cmpd 924, Temsirolimus (CCl-779, NSC 683864)]: the “Compound Myofibroblast Cytotoxicity Activity” value is “+++++”.
The value for `COc1cc([C@@H]2c3cc4c(cc3[C@@H](O[C@@H]3O[C@@H]5CO[C@@H](c6cccs6)O[C@H]5[C@H](O)[C@H]3O)[C@H]3COC(=O)[C@H]23)OCO4)cc(OC)c1O` [Cmpd 925, Teniposide] was “++”; that for `CN(C/C=C/C#CC(C)(C)C)Cc1cccc2ccccc12` [Cmpd 926, Terbinafine] was “++”; that for `CN(C/C=C/C#CC(C)(C)C)Cc1cccc2ccccc12` [Cmpd 927, Terbinafine HCl] was “++++”.
The value for `CC(C)N1CCN(c2ccc(OCC3COC(Cn4cncn4)(c4ccc(Cl)cc4Cl)O3)cc2)CC1` (stereo not shown) [Cmpd 928, Terconazole] was “++”.
The value for `O=C(O)c1ccc(C(=O)O)cc1` [Cmpd 929, Terephthalic acid] was “++”.
Turning to `CC1=CCC(O)(C(C)C)CC1` (stereo not shown) [Cmpd 931, Terpinen-4-ol], the “Compound Myofibroblast Cytotoxicity Activity” value was “++”.
As for `COc1cc2c(cc1OC)C1CC(=O)C(CC(C)C)CN1CC2` (stereo not shown) [Cmpd 933, Tetrabenazine], the “Compound Myofibroblast Cytotoxicity Activity” value is on record as “+++”.
`COc1ccc2cc1Oc1ccc(cc1)C[C@H]1c3cc(c(OC)cc3CCN1C)Oc1c(OC)c(OC)cc3c1[C@H](C2)N(C)CC3` [Cmpd 936, Tetrandrine]: the “Compound Myofibroblast Cytotoxicity Activity” value is “++”.
In the case of `Cc1cnc(Nc2ccc(OCCN3CCCC3)cc2)nc1Nc1cccc(S(=O)(=O)NC(C)(C)C)c1` [Cmpd 937, TG101348 (SAR302503)], the “Compound Myofibroblast Cytotoxicity Activity” value is reported as “++++”.
Take `Cc1ncc(C[n+]2csc(CCO)c2C)c(N)n1.Cl.[Cl-]` [Cmpd 939, Thiamine HCl (Vitamin B1)]: the “Compound Myofibroblast Cytotoxicity Activity” value was “++”.
As for `CSc1ccc2c(c1)N(CCC1CCCCN1C)c1ccccc1S2` (stereo not shown) [Cmpd 940, Thioridazine HCl], the “Compound Myofibroblast Cytotoxicity Activity” value is listed as “++++”.
With `Cc1cn([C@H]2C[C@H](O)[C@@H](CO)O2)c(=O)[nH]c1=O` [Cmpd 943, Thymidine], the “Compound Myofibroblast Cytotoxicity Activity” value is “++”.
Regarding `O=c1sn(-c2cccc3ccccc23)c(=O)n1Cc1ccccc1` [Cmpd 946, Tideglusib], the “Compound Myofibroblast Cytotoxicity Activity” value is on record as “++”.
As for `Clc1ccc(C(Cn2ccnc2)OCc2ccsc2Cl)c(Cl)c1` (stereo not shown) [Cmpd 947, Tioconazole], the “Compound Myofibroblast Cytotoxicity Activity” value is recorded as “+++”.
Consider `Nc1n[n+]([O-])c2ccccc2[n+]1[O-]` [Cmpd 948, Tirapazamine], for which the “Compound Myofibroblast Cytotoxicity Activity” value was “++++”.
In the case of `O=C(O)Cc1cc(I)c(Oc2ccc(O)c(I)c2)c(I)c1` [Cmpd 949, Tiratricol], the “Compound Myofibroblast Cytotoxicity Activity” value was “+++”.
The value for `O=C1NC(=O)[C@@H](c2cn3c4c(cccc24)CCC3)[C@@H]1c1c[nH]c2ccccc12` [Cmpd 950, Tivantinib (ARQ 197)] was “++”.
In the case of `Cc1ccc(S(=O)(=O)NC(=O)NN2CCCCCC2)cc1` [Cmpd 953, Tolazamide] it was “++++”; in that of `Cc1c(Cl)cccc1Nc1ccccc1C(=O)O` [Cmpd 955, Tolfenamic Acid], “++”; in that of `Cc1cccc(N(C)C(=S)Oc2ccc3ccccc3c2)c1` [Cmpd 956, Tolnaftate], “++++”.
For the compound `CN(C)CCOc1ccc(/C(=C(/CCCl)c2ccccc2)c2ccccc2)cc1` [Cmpd 959, Toremifene Citrate], the “Compound Myofibroblast Cytotoxicity Activity” value is “+++”.
As to `NCCCS(=O)(=O)O` [Cmpd 961, Tramiprosate], the “Compound Myofibroblast Cytotoxicity Activity” value was “+++++”.
In the case of `C/C=C/c1ccc(OC)cc1` [Cmpd 963, Trans-Anethole], the “Compound Myofibroblast Cytotoxicity Activity” value is “++”.
The value for `Cl.N[C@@H]1C[C@H]1c1ccccc1` [Cmpd 964, Tranylcypromine hydrochloride] was “++++”.
In the case of `CC1(C)CC(=O)CC(C)(C)N1` [Cmpd 967, Triacetonamine], the “Compound Myofibroblast Cytotoxicity Activity” value was “++”.
For `N[C@@H](Cc1cc(I)c(Oc2ccc(O)c(I)c2)c(I)c1)C(=O)O` [Cmpd 972, Triiodothyronine], the “Compound Myofibroblast Cytotoxicity Activity” value was “++”.
`C[C@]12CC[C@H]3[C@@H](CC[C@@]45O[C@@H]4C(O)=C(C#N)C[C@]35C)[C@@H]1CC[C@@H]2O` [Cmpd 973, Trilostane]: the “Compound Myofibroblast Cytotoxicity Activity” value is listed as “++”.
The value for `COc1cc(C(=O)NCc2ccc(OCCN(C)C)cc2)cc(OC)c1OC.Cl` [Cmpd 974, Trimethobenzamide hydrochloride] was “++”; that for `CC(CN(C)C)CN1c2ccccc2CCc2ccccc21.O=C(O)/C=C\C(=O)O` (stereo not shown) [Cmpd 975, Trimipramine (maleate)] was “++”; that for `Cc1c(C)c2c(c(C)c1O)CCC(C)(COc1ccc(CC3SC(=O)NC3=O)cc1)O2` (stereo not shown) [Cmpd 976, Troglitazone] was “+++”.
In the case of `Cc1[nH]c(/C=C2\C(=O)Nc3ccccc32)c(C)c1CCC(=O)O` [Cmpd 979, TSU-68 (SU6668, Orantinib)] it was “++”; in that of `NCCc1ccc(O)cc1` [Cmpd 981, Tyramine], “++”; in that of `C[C@H](CCC(=O)O)[C@H]1CC[C@H]2[C@@H]3[C@@H](O)C[C@@H]4C[C@H](O)CC[C@]4(C)[C@H]3CC[C@]12C` [Cmpd 988, Ursodeoxycholic Acid], “+”.
In the case of `O=c1ccn([C@@H]2O[C@H](COP(=O)([O-])OP(=O)([O-])OP(=O)([O-])O)[C@@H](O)[C@H]2O)c(=O)[nH]1.[Na+].[Na+].[Na+]` [Cmpd 990, UTP, Trisodium Salt] it was “++”.
`CCCC(CCC)C(=O)O` [Cmpd 993, Valproic acid]: the “Compound Myofibroblast Cytotoxicity Activity” value was “+++”.
Regarding `COc1cc2/c(=N/c3ccc(Br)cc3F)nc[nH]c2cc1OCC1CCN(C)CC1` [Cmpd 994, Vandetanib (ZD6474)], the “Compound Myofibroblast Cytotoxicity Activity” value was “++++”.
The value for `COc1cc(C(=O)O)ccc1O` [Cmpd 995, Vanillic acid] was “++”.
The value for `CCCc1nc(C)c2c(=O)[nH]c(-c3cc(S(=O)(=O)N4CCN(CC)CC4)ccc3OCC)nn12` [Cmpd 996, Vardenafil] was “++++”; that for `COc1ccc(C(CN(C)C)C2(O)CCCCC2)cc1` (stereo not shown) [Cmpd 998, Venlafaxine] was “++”.
Regarding `C=Cc1c(C)c2cc3nc(cc4[nH]c(cc5nc(cc1[nH]2)C(C)=C5CCC(=O)O)c(CCC(=O)OC)c4C)[C@@]1(C)C3=CC=C(C(=O)OC)[C@H]1C(=O)OC` [Cmpd 999, Verteporfin], the “Compound Myofibroblast Cytotoxicity Activity” value is recorded as “+++++”.
As for `OCc1cc([C@@H](O)CNCCCCCCOCCOCc2c(Cl)cccc2Cl)ccc1O` [Cmpd 1001, Vilanterol trifenatate], the “Compound Myofibroblast Cytotoxicity Activity” value was “+++”.
Consider `CC[C@]1(O)C[C@@H]2CN(CCc3c([nH]c4ccccc34)[C@@](C(=O)OC)(c3cc4c(cc3OC)N(C)[C@H]3[C@@](O)(C(=O)OC)[C@H](OC(C)=O)[C@]5(CC)C=CCN6CC[C@]43[C@@H]65)C2)C1` [Cmpd 1002, Vinblastine sulfate], for which the “Compound Myofibroblast Cytotoxicity Activity” value is reported as “++”.
Take `CC[C@]1(O)C[C@H]2CN(CCc3c([nH]c4ccccc34)[C@@](C(=O)OC)(c3cc4c(cc3OC)N(C=O)[C@H]3[C@@](O)(C(=O)OC)[C@H](OC(C)=O)[C@]5(CC)C=CCN6CC[C@]43[C@@H]65)C2)C1` [Cmpd 1004, Vincristine sulfate]: the “Compound Myofibroblast Cytotoxicity Activity” value is “+++”.
The value for `CCC1=C[C@@H]2CN(C1)Cc1c([nH]c3ccccc13)[C@@](C(=O)OC)(c1cc3c(cc1OC)N(C)[C@H]1[C@@](O)(C(=O)OC)[C@H](OC(C)=O)[C@]4(CC)C=CCN5CC[C@]31[C@@H]54)C2` [Cmpd 1005, Vinorelbine] was “++”.
Turning to `CCOC(=O)C1=C[C@]2(CC)CCCN3CCc4c(n1c1ccccc41)[C@@H]32` [Cmpd 1006, Vinpocetine], the “Compound Myofibroblast Cytotoxicity Activity” value was “+++”.
As to `C=C1CC[C@H](O)C/C1=C/C=C1\CCC[C@]2(C)[C@@H]([C@H](C)/C=C/[C@H](C)C(C)C)CC[C@@H]12` [Cmpd 1008, Vitamin D2 (Ergocalciferol)], the “Compound Myofibroblast Cytotoxicity Activity” value is “+++”.
The value for `C=C1CC[C@H](O)C/C1=C/C=C1\CCC[C@]2(C)[C@@H]([C@H](C)CCCC(C)C)CC[C@@H]12` [Cmpd 1009, Vitamin D3] was “+++”; that for `CC1=C(C/C=C(\C)CCC[C@H](C)CCC[C@H](C)CCCC(C)C)C(=O)c2ccccc2C1=O` [Cmpd 1010, Vitamin K1] was “++”.
In the case of `CC(C)(C)C#Cc1cc(N(C(=O)[C@H]2CC[C@H](C)CC2)[C@H]2CC[C@H](O)CC2)c(C(=O)O)s1` [Cmpd 1014, VX-222 (VCH-222,Lomibuvir)] it was “++”; in that of `O=c1[nH]c(=O)c2[nH]cnc2[nH]1` [Cmpd 1020, xanthine], “++”.
For `COc1cc(C(=O)NS(=O)(=O)c2ccccc2C)ccc1Cc1cn(C)c2ccc(NC(=O)OC3CCCC3)cc12` [Cmpd 1023, Zafirlukast], the “Compound Myofibroblast Cytotoxicity Activity” value is recorded as “+++++”.
